Test results as given in US11084783B2, “O-alkyl-benzylideneguanidine derivatives and therapeutic use for the treatment of disorders associated with an accumulation of misfolded proteins” (INFLECTIS BIOSCIENCE, priority 2014, dated 2021).

Experiments:
Type in all cases: cell-based
[1] = tested on: rotenone injured primary mesencephalic rat neurons; assay: In vitro Parkinson's disease model: rotenone injured primary mesencephalic rat neurons; settings: rotenone 10 nM, 24 hours; total number of TH positive neurons
Protocol: Rat dopaminergic neurons were cultured as described by Schinelli et al., (1988 J. Neurochem 50 pp1900-07) and Visanji et al., (2008 FASEB J. 22(7) pp2488-97). Briefly, the midbrains obtained from 15-day old rat embryos (Janvier Labs, France) were dissected under a microscope. The embryonic midbrains were removed and placed in ice-cold medium of Leibovitz (L15, Pan Biotech, Batch: 9310614) containing 2% of Penicillin-Streptomycin (PS, Pan Biotech, Batch: 1451013) and 1% of bovine serum albumin (BSA, Pan Biotech, Batch: h140603). The ventral portion of the mesencephalic flexure, a region of the developing brain rich in dopaminergic neurons, was used for the cell preparations.
The midbrains were dissociated by trypsinisation for 20 min at 37° C. (Trypsin 0.05% EDTA 0.02%, PanBiotech, Batch: 5890314). The reaction was stopped by the addition of Dulbecco's modified Eagle's medium (DMEM, PanBiotech, Batch: 1300714) containing DNAase I grade II (0.1 mg/ml, PanBiotech, Batch: H140508) and 10% of foetal calf serum (FCS, Gibco, Batch: 41Q7218K). Cells were then mechanically dissociated by 3 passages through a 10 ml pipette. Cells were then centrifuged at 180×g for 10 min at +4° C. on a layer of BSA (3.5%) in L15 medium. The supernatant was discarded and the cell pellets were re-suspended in a defined culture medium consisting of Neurobasal (Invitrogen, Batch: 1636133) supplemented with B27 (2%, Invitrogen, Batch: 1660670), L-glutamine (2 mM, PanBiotech, Batch: 8150713) and 2% of PS solution and 10 ng/ml of Brain-derived neurotrophic factor (BDNF, PanBiotech, Batch: H140108) and 1 ng/ml of Glial-Derived Neurotrophic Factor (GDNF, Pan Biotech, Batch: H130917). Viable cells were counted in a Neubauer cytometer using the trypan blue exclusion test. The cells were seeded at a density of 40 000 cells/well in 96 well-plates pre-coated with poly-L-lysine (Corning Biocoat, Batch: 6614022) and maintained in a humidified incubator at 37° C. in 5% CO2/95% air atmosphere. Half of the medium was changed every 2 days with fresh medium.
On day 6 of culture, the medium was removed and fresh medium was added, without or with rotenone (Sigma, Batch: 021M2227V) at 10 nM diluted in control medium, 3 wells per condition were assessed. […]
The immunolabeled cultures were automatically examined with ImageXpress (Molecular device USA). For each condition, 20 automatically fields per well (representing ˜80% of the total surface of the well) from 3 wells were analyzed. The total number of TH neurons was automatically analyzed using Custom module editor (Molecular Devices, USA). […] All values were expressed as mean +/−SEM (s.e. mean) of the 1 culture (n=3 wells per condition per culture).

[2] = tested on: T181P mutated DM20 protein expressed in Human 293T cell; assay: In vitro model of leukodystrophy (PMD): overexpression of mutated DM20, protein accumulation by western-blot; settings: 5 microM, western-blot 48h
Protocol: Human open reading frame (ORF) sequences for PLP1, DM20 and Insulin were obtained from Life Technologies (Invitrogen) (IOH41689, IOH5252 and IOH7334 respectively). Construct cloning into the expression plasmid pDEST26 (Invitrogen) was performed by Gateway® LR Clonase™ II Enzyme Mix (Invitrogen). ORF mutations were carried out using the QuikChange Lightning Site-Directed Mutagenesis Kit (Stratagene) (T181P mutation for PLP1 and DM20 ORFs, Akita (C96Y) for Insulin ORF).
One day before transfection, 293T cells were plated at 300,000 cells/mL. 293T cells were transfected with PLP1 and DM20 mutant constructs using Lipofectamine 2000 according to manufacturer's procedure. After transfection, cells were treated with molecules or left untreated.
As a control, cells were transfected with native forms of the proteins. 48h later, cellular lysates were harvested. Protein accumulation was assessed by western-blot.

Min6 insulinoma cell = assay: Min6 cell line cytoprotection from ER stress (tunicamycin); settings: 6 hour exposure to tunicamycin 2.5 μg/mL, different concentrations, viability 72h
Protocol: Cells were plated in 96 well plates at a density of 0.5.10^6 cells/mL for Min6 cell line, 0,4.10^6 cells/mL for INS1 cell line the day before the treatment. ER stress was elicited by addition of 2.5 μg/mL tunicamycin (Sigma Aldrich) together with phosphatases inhibitors. Media were changed 6h later with fresh media and the cytoprotection was maintained by the addition of phosphatases inhibitors. Cell viability was assessed by measuring the reduction of WST-8 into formazan using Cell Counting Kit-8 (Sigma) according to the supplier's recommendation, 72h after tunicamycin treatment.

SMILES	protection of rotenone injured primary mesencephalic rat neurons (FIG. 3) [1]	prevention of accumulation of T181P mutated DM20 protein (FIG. 5) [2]	prevention of Min6 insulinoma cell death (FIG. 7) (Min6 insulinoma cell)
CCONC(=N)N/N=C/c1c(F)cccc1Cl [Compound 17, 2-(2-chloro-6-fluorobenzylidene)-N-ethoxyhydrazinecarboximidamide]	dose dependent protection	able to prevent the accumulation	prevent Min6 insulinoma cell death
CCCONC(=N)N/N=C/c1ccccc1Cl [Compound 12, 2-(2-chlorobenzylidene)-N-propoxyhydrazinecarboximidamide]	dose dependent protection	able to prevent the accumulation	prevent Min6 insulinoma cell death
CCONC(=N)N/N=C/c1c(Cl)cccc1Cl [Compound 11, 2-(2,6-dichlorobenzylidene)-N-ethoxyhydrazinecarboximidamide]	dose dependent protection	–	–
